Drawing on ChEMBL document CHEMBL5226386, “Discovery and Biosynthesis of Glycosylated Cycloheximide from a Millipede-Associated Actinomycete” (J Nat Prod, 2023), this text covers IC50 and MIC for 5 compounds.

The test system of one assay is A549. The assay can be described thus: Cytotoxicity against human A549 cells assessed as reduction in cell viability incubated for 48 hrs by CCK-8 assay. The class given is functional, cell-based. The following applies: A549, 48 h. On the technique in general: Tetrazolium assays rely on reduction of a dye to a coloured formazan, in cell work by metabolically active cells.

A further assay deals with Saccharomyces cerevisiae. The assay can be described thus: Antifungal activity against Saccharomyces cerevisiae BY4741 assessed as inhibition of fungal growth incubated for 24 hrs by agar diffusion method. The class given is functional.
Another assay concerns HeLa. Briefly: Cytotoxicity against human HeLa cells assessed as reduction in cell viability incubated for 48 hrs by CCK-8 assay. The class given is functional, cell-based.
The subject of a further assay is Cryptococcus neoformans. The assay can be described thus: Antifungal activity against Cryptococcus neoformans H99 assessed as inhibition of fungal growth incubated for 24 hrs by agar diffusion method. The class given is functional.
Another assay has as its system MCF7. The assay can be described thus: Cytotoxicity against human MCF7 cells assessed as reduction in cell viability incubated for 48 hrs by CCK-8 assay. The following applies: MCF7, 48 h. The class given is functional, cell-based.

The IC50 is the concentration at which inhibition is half-maximal. Broadly, the MIC is the smallest concentration in the dilution series that meets the test's criterion for growth inhibition.

Converted amounts (≈) assume the structure as drawn.

For the compound `C[C@@H]1C[C@@H]([C@@H](CC2CC(=O)NC(=O)C2)O[C@H]2O[C@H](CO)[C@@H](O)[C@H](O)[C@H]2O)C(=O)[C@@H](C)C1`, the half-maximal inhibitory concentration (IC50) in the assay on A549, with HeLa and in the assay with MCF7 was greater than 20 µM each time. Also, the MIC with Saccharomyces cerevisiae and in the assay with Cryptococcus neoformans was greater than 32 µg/mL each time.
Turning to `COc1cccc2c1C(=O)c1c(O)c3c(c(O)c1C2=O)C[C@@](O)(C(=O)CO)C[C@@H]3O[C@H]1C[C@H](N)[C@H](O)[C@H](C)O1` [DOXORUBICIN], the IC50 came out at 0.6 µM in the assay on A549, 0.09 µM in the assay on HeLa and 0.97 µM in the assay on MCF7.
Take `Cc1cc(C)c(O[C@@H]2O[C@@H](C)[C@H](O)[C@@H](O)[C@H]2O)c(C(=O)CC2CC(=O)NC(=O)C2)c1`: the IC50 in the assay with A549, in the assay on HeLa and with MCF7 was greater than 20 µM each time. The minimum inhibitory concentration (MIC) in the assay with Saccharomyces cerevisiae and in the assay on Cryptococcus neoformans was greater than 32 µg/mL in each case.
As for `C[C@@H]1C[C@@H]([C@H](O)CC2CC(=O)NC(=O)C2)C(=O)[C@@H](C)C1` [CYCLOHEXIMIDE], the figures for the concentration for half-maximal inhibition (IC50) with A549, with HeLa and with MCF7 were 0.67 µM, 1 µM and 0.53 µM, respectively. Besides, the MIC in the assay on Saccharomyces cerevisiae and with Cryptococcus neoformans was 2 µg/mL (≈ 7.11 µM) each time.
As for `C[C@@H]1C/C(=C\CC2CC(=O)NC(=O)C2)C(=O)[C@@H](C)C1`, the concentration for half-maximal inhibition (IC50) in the assay on A549, with HeLa and in the assay on MCF7 was greater than 20 µM each time. Moreover, the minimum inhibitory concentration (MIC) with Saccharomyces cerevisiae and with Cryptococcus neoformans was greater than 32 µg/mL throughout.
